The text below walks through data of US11351209B2 (priority 2016, dated 2022).

For assay [1], the system named is CT26 flank tumours. Nature of the assay: Efficacy study, oral IC87114 and intravenous VVL15, CT26 flank tumours. The class given is in vivo, BALB/c mice. The conditions noted are these: IC87114 50 mg kg^−1 oral gavage three hours before intravenous 1×10^8 PFU VVL15 (Group D), days 8, 11, 13, vs all other groups.
For assay [2], the system named is orthotopic 4T1 tumours. Nature of the assay: Efficacy study, oral IC87114 and intravenous VVL15, orthotopic 4T1 tumours. The format is in vivo, BALB/c mice. The conditions noted are these: 4T1 orthotopic; IC87114 75 mg kg^−1 oral gavage three hours before intravenous 1×10^8 PFU VVL15 (Group D), days 12, 15, 17; vs all other groups.

The structures appear in SMILES notation. “Also recorded” adds a separate entry of the source.

Take `Cc1ccccc1-n1c(Cn2cnc3c(N)ncnc32)nc2cccc(C)c2c1=O` [IC87114, 2-[(6-amino-9H-purin-9-yl)methyl]-5-methyl-3-(2-methylphenyl)-4(3H)-quinazolinone]: the tumour burden result in assay [1] and in assay [2] was “significantly reduces the tumour burden; also recorded: significantly less tumour burden; also recorded: reduced tumour burden” each time.
